Values after ≈ are worked out from the molar mass of the structure shown. Where two headings read alike, the source gives them in different places.
Tests used:
S. aureus ATCC 29213 = assay: MIC by broth microdilution (CLSI), quality control strain S. aureus ATCC 29213; assay type: cell-based, Staphylococcus aureus; conditions: multiple values when multiple MIC assays were conducted; for MIC: Staphylococcus aureus, ATCC29213, S. aureus ATCC 29213
Experimental: Minimum inhibitory concentrations were determined using the quality control strain S. aureus ATCC 29213 (Table 1) by the broth microdilution method according to guidelines of the Clinical and Laboratory Standards Institute (CLSI) (Cockerill, F. R.; et al., 2012, Methods for dilution antimicrobial susceptibility tests for bacteria that grow aerobically; approved standard-ninth edition. MA07-A9. Clinical and Laboratory Standard Institute, Wayne, Pa.). […] Published quality control ranges for gepotidacin and ciprofloxacin were used to validate each assay. MICs for selected compounds were also determined using a USA 300 strain of MRSA (Hidron, et al., Lancet Infect. Dis. 2009, 9:384-392). Vancomycin was used as an additional control.

USA 300 strain of MRSA = assay: MIC by broth microdilution, USA 300 strain of MRSA; assay type: cell-based, Staphylococcus aureus; conditions: Staphylococcus aureus, multiple values when multiple MIC assays were conducted, read-out: MIC USA300
Experimental: Minimum inhibitory concentrations were determined using the quality control strain S. aureus ATCC 29213 (Table 1) by the broth microdilution method according to guidelines of the Clinical and Laboratory Standards Institute (CLSI) (Cockerill, F. R.; et al., 2012, Methods for dilution antimicrobial susceptibility tests for bacteria that grow aerobically; approved standard-ninth edition. MA07-A9. Clinical and Laboratory Standard Institute, Wayne, Pa.). […] MICs for selected compounds were also determined using a USA 300 strain of MRSA (Hidron, et al., Lancet Infect. Dis. 2009, 9:384-392). Vancomycin was used as an additional control.

[1] = target: T1, Staphylococcus aureus gyrase (Staphylococcus aureus, UniProt P0A0K8+P20831); assay: Staphylococcus aureus gyrase supercoiling assay; assay type: biochemical; conditions: S. aureus DNA gyrase supercoiling; read-out: Gyrase IC50
T1 construct: purchased Inspiralis, Norwich, UK
Experimental: (§1) A subset of analogs was used to assess the degree of inhibition of DNA gyrase or TopoIV (Inspiralis, Norwich, UK), both to establish the mechanism of action and to evaluate the relative balance of inhibitory activities (Table 1). A subset of compound was also assayed to determine the degree of inhibition of human topoisomerase II (Inspiralis, Norwich, UK)).
(§2) In all experiments, the activity of the enzymes was determined prior to the testing of the compounds and 1 unit (U) was defined as the amount of enzyme required to just fully supercoil, relax or decatenate the substrate (see explanation of gels). This amount of enzyme was initially used in determination of control inhibitor activity. These experiments were performed in duplicate.
(§3) For all assays the final DMSO concentration was 1%. 10 mM stocks of the compounds were serially diluted into 10% DMSO at 1 mM, 0.5 mM, 0.25 mM, 0.1 mM, 0.05 mM, 0.01 mM, 0.005 mM, 0.001 mM, 0.0005 mM, 0.0001 mM and 0.00005 mM. 3.0 μl of each dilution was added to a 30 μl assay.
(§4) Bands were visualised by ethidium staining for 20 minutes and destaining for 20 minutes. Gels were scanned using documentation equipment (GeneGenius, Syngene, Cambridge, UK) and % inhibition levels (where appropriate) were obtained with gel scanning software. (GeneTools, Syngene, Cambridge, UK)
Staphylococcus aureus gyrase supercoiling
1 U of DNA gyrase was incubated with 0.5 μg of relaxed pBR322 DNA in a 30 μl reaction at 37° C. for 30 minutes under the following conditions: 40 mM HEPES. KOH (pH 7.6), 10 mM magnesium acetate, 10 mM DTT, 2 mM ATP, 500 mM potassium glutamate and 0.05 mg/ml BSA.
Each reaction was stopped by the addition of 30 μl chloroform/iso-amyl alcohol (26:1) and 30 μl Stop Dye (40% sucrose (w/v), 100 mM Tris.HCl (pH 7.5), 10 mM EDTA, 0.5 μg/ml bromophenol blue), before being loaded on a 1.0% TAE gel run at 70V for 2 hours.

[2] = target: T2, Staphylococcus aureus Topo IV (Staphylococcus aureus, UniProt P0C1S7+P0C1U9); assay: Staphylococcus aureus Topo IV decatenation assay; assay type: biochemical
T2 construct: purchased Inspiralis, Norwich, UK
Experimental: as §1, §2, §3, §4
Staphylococcus aureus Topo IV Decatenation Assay
1 U of Topo IV was incubated with 200 ng kDNA DNA in a 30 μl reaction at 37° C. for 30 minutes under the following conditions: 50 mM Tris.HCl (7.5), 5 mM MgCl2, 5 mM DTT, 1.5 mM ATP, 350 mM potassium glutamate and 0.05 mg/ml BSA.
Each reaction was stopped by the addition of 30 μl chloroform/iso-amyl alcohol (26:1) and 30 μl Stop Dye, before being loaded on a 1.0% TAE gel run at 70V for 2 hours.

human topo II = target: T3, human topo II (Homo sapiens, UniProt P11388); assay: Topoisomerase II (alpha) decatenation assay; assay type: biochemical; conditions: activity remaining at 100 μM compound; read-out: hTopoll (% activity remaining at 100 μM)
T3 construct: purchased Inspiralis, Norwich, UK
T3 sequence (P11388 whole entry): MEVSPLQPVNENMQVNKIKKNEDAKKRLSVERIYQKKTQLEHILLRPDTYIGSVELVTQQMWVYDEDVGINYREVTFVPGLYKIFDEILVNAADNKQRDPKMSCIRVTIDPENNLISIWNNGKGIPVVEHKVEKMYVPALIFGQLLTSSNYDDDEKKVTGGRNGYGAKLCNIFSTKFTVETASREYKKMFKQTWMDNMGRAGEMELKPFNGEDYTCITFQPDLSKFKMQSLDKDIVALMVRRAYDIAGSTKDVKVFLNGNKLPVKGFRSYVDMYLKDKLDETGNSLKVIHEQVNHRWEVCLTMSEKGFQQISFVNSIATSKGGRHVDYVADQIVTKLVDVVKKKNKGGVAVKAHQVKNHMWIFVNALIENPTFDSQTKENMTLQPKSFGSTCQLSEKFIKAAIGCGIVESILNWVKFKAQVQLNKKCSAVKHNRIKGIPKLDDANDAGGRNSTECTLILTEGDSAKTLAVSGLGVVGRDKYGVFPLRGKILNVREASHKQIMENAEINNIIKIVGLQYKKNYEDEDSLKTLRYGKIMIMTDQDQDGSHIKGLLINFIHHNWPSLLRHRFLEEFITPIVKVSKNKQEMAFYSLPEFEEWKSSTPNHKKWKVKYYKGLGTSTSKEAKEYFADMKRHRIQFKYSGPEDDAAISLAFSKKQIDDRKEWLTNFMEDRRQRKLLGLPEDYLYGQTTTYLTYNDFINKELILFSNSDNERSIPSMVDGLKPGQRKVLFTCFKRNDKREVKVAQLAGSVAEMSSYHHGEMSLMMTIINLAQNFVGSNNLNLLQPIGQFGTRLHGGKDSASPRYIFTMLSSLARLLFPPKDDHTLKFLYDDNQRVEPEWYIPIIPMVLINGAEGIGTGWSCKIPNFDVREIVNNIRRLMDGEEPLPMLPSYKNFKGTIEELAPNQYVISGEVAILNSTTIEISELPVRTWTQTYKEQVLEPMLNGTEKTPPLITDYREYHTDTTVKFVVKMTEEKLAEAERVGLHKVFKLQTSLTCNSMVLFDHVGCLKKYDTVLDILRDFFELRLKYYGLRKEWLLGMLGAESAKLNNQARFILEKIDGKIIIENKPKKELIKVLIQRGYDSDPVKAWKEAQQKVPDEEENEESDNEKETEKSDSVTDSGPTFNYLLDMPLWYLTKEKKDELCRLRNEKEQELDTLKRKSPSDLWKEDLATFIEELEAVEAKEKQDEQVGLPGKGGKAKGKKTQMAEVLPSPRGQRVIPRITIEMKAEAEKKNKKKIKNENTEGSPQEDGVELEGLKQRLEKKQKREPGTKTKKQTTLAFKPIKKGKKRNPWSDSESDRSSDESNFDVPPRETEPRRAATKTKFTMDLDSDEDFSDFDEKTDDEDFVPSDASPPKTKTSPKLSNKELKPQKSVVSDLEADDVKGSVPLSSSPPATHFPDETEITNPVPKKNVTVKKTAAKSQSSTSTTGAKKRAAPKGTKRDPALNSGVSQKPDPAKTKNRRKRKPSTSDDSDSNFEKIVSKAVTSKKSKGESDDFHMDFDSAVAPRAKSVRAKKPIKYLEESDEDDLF
Experimental: as §1, §2, §3, §4
Topoisomerase II (Alpha) Decatenation Assay
Each reaction was stopped by the addition of 30 μl chloroform/iso-amyl alcohol (26:1) and 30 μl Stop Dye, before being loaded on a 1.0% TAE gel run at 90V for 2 hours.

[3] = S. aureus Topo IV decatenation, read-out: TopolV Decat IC50

Row | MIC (S. aureus ATCC 29213) [µg/mL] | MIC (USA 300 strain of MRSA) [µg/mL] | MIC 29213 (S. aureus ATCC 29213; S. aureus ATCC 29213) [µg/mL] | SMILES | IC50 [1] [nM] | IC50 [2, 3] [nM] | remaining activity at 100 µM (human topo II) [%] | IC50 [2] [nM]
1 | 0.5 (≈ 1.06 µM) | 1 (≈ 2.12 µM) |  | COc1ccc2ncc(F)c(C(O)C[C@H]3OC[C@H](NCc4cc5c(cn4)OCCO5)CO3)c2n1 (stereo partly drawn) [AB-0083, 2-(5-(((2,3-dihydro-[1,4]dioxino[2,3-c]pyridin-7-yl)methyl)amino)-trans-1,3-dioxan-2-yl)-1-(3-fluoro-6-methoxy-1,5-naphthyridin-4-yl)ethanol] |  |  |  | 
2 | 1 (≈ 2.13 µM) | 2 (≈ 4.25 µM) |  | COc1ccc2ncc(=O)n(CC(O)[C@H]3OC[C@H](NCc4cc5c(cn4)OCCO5)CO3)c2c1 (stereo partly drawn) [AB-0077, 1-(2-(5-(((2,3-dihydro-[1,4]dioxino[2,3-c]pyridin-7-yl)methyl)amino)-trans-1,3-dioxan-2-yl)-2-hydroxyethyl)-7-methoxyquinoxalin-2(1H)-one] |  |  |  | 
3 | 0.25 (≈ 0.536 µM) | 0.125 (≈ 0.268 µM) |  | COc1ccc2ncc(F)c(CC[C@H]3OC[C@H](NCc4ccc(Cl)c(Cl)c4)CO3)c2n1 [AB-0017, N-(3,4-dichlorobenzyl)-2-(2-(3-fluoro-6-methoxy-1,5-naphthyridin-4-yl)ethyl)-trans-1,3-dioxan-5-amine] |  |  |  | 
4 | 1 (≈ 2.55 µM) | 1 (≈ 2.55 µM) |  | COc1ccc2nccc(CC[C@H]3OC[C@H](NCc4ccc(C)cc4)CO3)c2c1 [AB-0044] |  |  |  | 
5 | ≤ 0.25 | 0.5 (≈ 1.12 µM) |  | COc1ccc2nccc(/C=C/[C@H]3OC[C@H](NCc4ccc(Cl)c(Cl)c4)CO3)c2c1 [AB-0009, N-(3,4-dichlorobenzyl)2-((E)-2-(6-methoxyquinolin-4-yl)vinyl)-trans-1,3-dioxan-5-amine] |  |  |  | 
6 | 2 (≈ 4.73 µM) | 4 (≈ 9.47 µM) |  | COc1ccc2nccc(CC[C@H]3OC[C@H](NCc4ccc5c(c4)OCO5)CO3)c2c1 [AB-0079, N-(benzo[d][1,3]dioxol-5-ylmethyl)-2-(2-(6-methoxyquinolin-4-yl)ethyl)-trans-1,3-dioxan-5-amine] |  |  |  | 
7 | 1 (≈ 2.18 µM) | 2 (≈ 4.36 µM) |  | COc1ccc2nccc(CC[C@H]3OC[C@H](NCc4ccc5c(c4)OC(F)(F)O5)CO3)c2c1 [AB-0080, N-((2,2-difluorobenzo[d][1,3]dioxol-5-yl)methyl)-2-(2-(6-methoxyquinolin-4-yl)ethyl)-trans-1,3-dioxan-5-amine] |  |  |  | 
8 | ≤ 0.25 | 0.5 (≈ 1.04 µM) |  | COc1ccc2ncc(F)c(C(O)C[C@H]3OC[C@H](NCc4ccc(Cl)c(Cl)c4)CO3)c2c1 (stereo partly drawn) [AB-0019, 2-(5-((3,4-dichlorobenzyl)amino)-trans-1,3-dioxan-2-yl)-1-(3-fluoro-6-methoxyquinolin-4-yl)ethan-1-ol] |  |  |  | 
9 | 1 (≈ 2.3 µM) | 1 (≈ 2.3 µM) | 2 (≈ 4.6 µM) | COc1ccc2nccc(/C=C/[C@H]3OC[C@H](NCc4ccc5c(c4)OCCO5)CO3)c2c1 [AB-0010, N-((2,3-dihydrobenzo[b][1,4]dioxin-6-yl)methyl)-2-((E)-2-(6-methoxyquinolin-4-yl)vinyl)-trans-1,3-dioxan-5-amine] |  |  |  | 

More lines, now with the values behind:

Row | SMILES | MIC (S. aureus ATCC 29213) [µg/mL] | MIC (USA 300 strain of MRSA) [µg/mL] | MIC 29213 (S. aureus ATCC 29213; S. aureus ATCC 29213) [µg/mL] | IC50 [1] [nM] | IC50 [2, 3] [nM] | remaining activity at 100 µM (human topo II) [%] | IC50 [2] [nM]
10 | COc1ccc2ncc(F)c(CC[C@H]3OC[C@H](NCc4ccc5c(n4)NC(=O)CS5)CO3)c2n1 [AB-0059, 6-(((2-(2-(3-fluoro-6-methoxy-1,5-naphthyridin-4-yl)ethyl)-trans-1,3-dioxan-5-yl)amino)methyl)-2H-pyrido[3,2-b][1,4]thiazin-3(4H)-one] | ≤ 0.5 | 0.25 (≈ 0.515 µM) |  | 170 | > 100000 | 95.7 | 
11 | COc1ccc2ncc(F)c(C(O)C[C@H]3OC[C@H](NCc4cc5c(cn4)OCCO5)CO3)c2c1 (stereo partly shown) [AB-0046] | 0.5 (≈ 1.06 µM) | 1 (≈ 2.12 µM) |  | 600 |  | 88.3 | 
12 | COc1ccc2nccc(CC[C@H]3OC[C@H](NCc4ccc(C(F)(F)F)cc4)CO3)c2c1 [AB-0071, 2-(2-(6-methoxyquinolin-4-yl)ethyl)-N-(4-(trifluoromethyl)benzyl)-trans-1,3-dioxan-5-amine] | 1 (≈ 2.24 µM) | 2 (≈ 4.48 µM) |  |  |  |  | 
13 | COc1ccc2nccc(CC[C@H]3OC[C@H](NCc4ccc(C#N)cc4)CO3)c2c1 [AB-0047, 4-(((2-(2-(6-methoxyquinolin-4-yl)ethyl)-trans-1,3-dioxan-5-yl)amino)methyl)benzonitrile] | > 64 |  |  | 13300 | > 100000 | 88.4 | 
14 | COc1ccc2nccc(CC[C@H]3OC[C@H](NCc4ccc5c(c4)OCCO5)CO3)c2c1 [AB-0011, N-((2,3-dihydrobenzo[b][1,4]dioxin-6-yl)methyl)-2-(2-(6-methoxyquinolin-4-yl)ethyl)-trans-1,3-dioxan-5-amine] |  | 0.5 (≈ 1.15 µM) |  | 100 |  | 84.2 | 13800
15 | COc1ccc2nccc(CC[C@H]3OC[C@H](NCc4ccc(Cl)c(Cl)c4)CO3)c2c1 [AB-0012, N-(3,4-dichlorobenzyl)-2-(2-(6-methoxyquinolin-4-yl)ethyl)-trans-1,3-dioxan-5-amine] |  | 0.5 (≈ 1.12 µM) |  | 280 | > 100000 | 93.2 | 
16 | COc1ccc2nccc(CC[C@H]3OC[C@H](NCc4ccc(F)c(Cl)c4)CO3)c2c1 [AB-0023, N-(3-chloro-4-fluorobenzyl)-2-(2-(6-methoxyquinolin-4-yl)ethyl)-trans-1,3-dioxan-5-amine] | 8 (≈ 18.6 µM) |  |  | 2100 | > 100000 | 97.7 | 
17 | COc1ccc2nccc(CC[C@H]3OC[C@H](NCc4ccc(OC(F)(F)F)cc4)CO3)c2c1 [AB-0081, 2-(2-(6-methoxyquinolin-4-yl)ethyl)-N-(4-(trifluoromethoxy)benzyl)-trans-1,3-dioxan-5-amine] | 2 (≈ 4.32 µM) | 4 (≈ 8.65 µM) |  |  |  |  | 
18 | COc1ccc(CN[C@H]2CO[C@H](CCc3ccnc4ccc(OC)cc34)OC2)cc1 [AB-0031, N-(4-methoxybenzyl)-2-(2-(6-methoxyquinolin-4-yl)ethyl)-trans-1,3-dioxan-5-amine] | 4 (≈ 9.79 µM) |  |  | 1530 | > 100000 | 98.7 | 
19 | COc1ccc2ncc(=O)n(CC[C@H]3OC[C@H](NCc4ccc5c(c4)OCCO5)CO3)c2c1 [AB-0002, 1-(2-(5-(((2,3-dihydrobenzo[b][1,4]dioxin-6-yl)methyl)amino)-1,3-trans-dioxan-2-yl)ethyl)-7-methoxyquinoxalin-2(1H)-one] | 4 (≈ 8.82 µM) |  |  | 2010 | > 100000 | 97.5 | 
20 | COc1ccc2nccc(CC[C@H]3OC[C@H](NCc4ccc(C(F)F)cc4)CO3)c2c1 [AB-0085, N-(4-(difluoromethyl)benzyl)-2-(2-(6-methoxyquinolin-4-yl)ethyl)-trans-1,3-dioxan-5-amine] | 2 (≈ 4.67 µM) | 4 (≈ 9.34 µM) |  |  |  |  | 

Reference: US11352349B2, “Type II topoisomerase inhibitors and methods of making and using thereof” (Ohio State Innovation Foundation, priority 2017, dated 2022)
